Measurements as given in article PMC6487500 (Molecular imaging and biology : MIB : the official …, 2019).

What was measured:
[1] = test system: BT474 cells; assay: Cell binding assay and specific binding; set-up: species or system human; settings: at 60 min
[2] = test system: BT474 xenografts; assay: Tissue distribution in mice bearing BT474 xenografts; assay type: in vivo, mouse; settings: BT474 xenograft mice, n = 5
[3] = 100 ± 20 μCi i.v., after PET/CT at 1 h

tissue distribution, contralateral muscle [2, 3]: 1.2 ± 0.4 %ID/g | tissue distribution, liver [2, 3]: 4.3 ± 1.3 %ID/g | tissue distribution, tumor uptake [2, 3]: 2.2 ± 1.7 %ID/g | tissue distribution, lungs ([2]; 100 ± 20 μCi i.v., at 1 h): 4.2 ± 2.6 %ID/g | T/M ratio, tissue distribution ([2]; non-blocked, after PET/CT at 1 h): 1.7 ± 0.8
Compound: [68Ga+3].[Cl-].[Cl-].[Cl-] [[^68Ga]GaCl3]
specific BT474 cell binding [1]: 18.8 ± 2.5%
